The supplement of paper PMC10307832

Legend:
Test in all cases: relative viability (nuclei count vs DMSO), 5 days (fraction); higher = more cells survive
[1] = tested on: NCI-H2347
Summary of the method: (§1)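 Lung cancer cell lines in 1536-well plates got either a single drug or a fixed anchor-drug dose together with five library-drug doses (not always all listed) in √10 steps, by pin tool, on the day after seeding. Nuclei were counted after 5 days, and relative viability is the treated-to-vehicle ratio of nuclei counts. Values are medians of duplicate plates.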

[2] = tested on: NCI-H2126
Summary of the method: as §1

[3] = tested on: H3255
Summary of the method: as §1

[4] = tested on: NCI-H520
Summary of the method: as §1

[5] = tested on: NCI-H522
Summary of the method: as §1

[6] = tested on: COR-L 105
Summary of the method: as §1

[7] = tested on: NCI-H2087
Summary of the method: as §1

[8] = tested on: NCI-H322M
Summary of the method: as §1

[9] = tested on: 201T
Summary of the method: as §1

[10] = tested on: NCI-H1915
Summary of the method: as §1

[11] = tested on: EPLC-272H
Summary of the method: as §1

[12] = tested on: NCI-H2405
Summary of the method: as §1

[13] = tested on: ChaGo-K-1
Summary of the method: as §1

[14] = tested on: HCC-827
Summary of the method: as §1

[15] = tested on: PC-14
Summary of the method: as §1

[16] = tested on: NCI-H23
Summary of the method: as §1

[17] = tested on: NCI-H650
Summary of the method: as §1

[18] = tested on: NCI-H661
Summary of the method: as §1

[19] = tested on: LCLC-97TM1
Summary of the method: as §1

[20] = tested on: LC-2-ad
Summary of the method: as §1

[21] = tested on: RERF-LC-KJ
Summary of the method: as §1

[22] = tested on: NCI-H1666
Summary of the method: as §1

[23] = tested on: NCI-H647
Summary of the method: as §1

[24] = tested on: HCC-78
Summary of the method: as §1

C[C@@H]1CN(CC(=O)Nc2ccc3c(c2)Cc2cccc(-c4cc(=O)cc(N5CCOCC5)o4)c2S3)C[C@H](C)O1 + CC(=O)Nc1cccc(-n2c(=O)n(C3CC3)c(=O)c3c(Nc4ccc(I)cc4F)n(C)c(=O)c(C)c32)c1 [Trametinib] (partner 0.02 µM)
relative viability ([1]; first compound 0.04 µM): 0.273
relative viability ([1]; first compound 0.1265 µM): 0.331
relative viability ([1]; first compound 0.4 µM): 0.319
relative viability ([1]; first compound 4 µM): 0.238
relative viability ([2]; first compound 0.04 µM): 0.558
relative viability ([2]; first compound 0.1265 µM): 0.573
relative viability ([2]; first compound 0.4 µM): 0.561
relative viability ([2]; first compound 4 µM): 0.557
relative viability ([3]; first compound 0.04 µM): 0.584
relative viability ([3]; first compound 0.1265 µM): 0.601
relative viability ([3]; first compound 0.4 µM): 0.473
relative viability ([3]; first compound 4 µM): 0.437
relative viability ([4]; first compound 0.04 µM): 0.675
relative viability ([4]; first compound 0.1265 µM): 0.629
relative viability ([4]; first compound 0.4 µM): 0.626
relative viability ([4]; first compound 4 µM): 0.556
relative viability ([5]; first compound 0.04 µM): 0.737
relative viability ([5]; first compound 0.1265 µM): 0.749
relative viability ([5]; first compound 0.4 µM): 0.724
relative viability ([5]; first compound 4 µM): 0.816
relative viability ([6]; first compound 0.04 µM): 0.458
relative viability ([6]; first compound 0.1265 µM): 0.412
relative viability ([6]; first compound 0.4 µM): 0.416
relative viability ([6]; first compound 4 µM): 0.428
relative viability ([7]; first compound 0.04 µM): 0.248
relative viability ([7]; first compound 0.1265 µM): 0.224
relative viability ([7]; first compound 0.4 µM): 0.16
relative viability ([7]; first compound 4 µM): 0.184
relative viability ([8]; first compound 0.04 µM): 0.402
relative viability ([8]; first compound 0.1265 µM): 0.535
relative viability ([8]; first compound 0.4 µM): 0.502
relative viability ([8]; first compound 4 µM): 0.501
relative viability ([9]; first compound 0.04 µM): 0.732
relative viability ([9]; first compound 0.1265 µM): 0.728
relative viability ([9]; first compound 0.4 µM): 0.675
relative viability ([9]; first compound 4 µM): 0.739
relative viability ([10]; first compound 0.04 µM): 0.299
relative viability ([10]; first compound 0.1265 µM): 0.291
relative viability ([10]; first compound 0.4 µM): 0.284
relative viability ([10]; first compound 4 µM): 0.294
relative viability ([11]; first compound 0.04 µM): 0.281
relative viability ([11]; first compound 0.1265 µM): 0.289
relative viability ([11]; first compound 0.4 µM): 0.281
relative viability ([11]; first compound 4 µM): 0.263
relative viability ([12]; first compound 0.04 µM): 0.7
relative viability ([12]; first compound 0.1265 µM): 0.651
relative viability ([12]; first compound 0.4 µM): 0.59
relative viability ([12]; first compound 4 µM): 0.66
relative viability ([13]; first compound 0.04 µM): 0.868
relative viability ([13]; first compound 0.1265 µM): 0.859
relative viability ([13]; first compound 0.4 µM): 0.879
relative viability ([13]; first compound 4 µM): 0.871
relative viability ([14]; first compound 0.04 µM): 0.541
relative viability ([14]; first compound 0.1265 µM): 0.51
relative viability ([14]; first compound 0.4 µM): 0.491
relative viability ([14]; first compound 4 µM): 0.513
relative viability ([15]; first compound 0.04 µM): 0.872
relative viability ([15]; first compound 0.1265 µM): 0.694
relative viability ([15]; first compound 0.4 µM): 0.719
relative viability ([15]; first compound 4 µM): 0.467
relative viability ([16]; first compound 0.04 µM): 0.356
relative viability ([16]; first compound 0.1265 µM): 0.348
relative viability ([16]; first compound 0.4 µM): 0.336
relative viability ([16]; first compound 4 µM): 0.286
relative viability ([17]; first compound 0.04 µM): 0.954
relative viability ([17]; first compound 0.1265 µM): 1
relative viability ([17]; first compound 0.4 µM): 0.874
relative viability ([17]; first compound 4 µM): 0.697
relative viability ([18]; first compound 0.04 µM): 0.481
relative viability ([18]; first compound 0.1265 µM): 0.552
relative viability ([18]; first compound 0.4 µM): 0.615
relative viability ([18]; first compound 4 µM): 0.507
relative viability ([19]; first compound 0.1265 µM): 0.165
relative viability ([19]; first compound 0.4 µM): 0.165
relative viability ([19]; first compound 4 µM): 0.175
relative viability ([20]; first compound 0.04 µM): 0.897
relative viability ([20]; first compound 0.1265 µM): 0.867
relative viability ([20]; first compound 0.4 µM): 0.892
relative viability ([20]; first compound 4 µM): 0.854
relative viability ([21]; first compound 0.04 µM): 0.874
relative viability ([21]; first compound 0.1265 µM): 0.796
relative viability ([21]; first compound 0.4 µM): 0.757
relative viability ([21]; first compound 4 µM): 0.695
relative viability ([22]; first compound 0.04 µM): 0.881
relative viability ([22]; first compound 0.1265 µM): 0.924
relative viability ([22]; first compound 0.4 µM): 0.91
relative viability ([22]; first compound 4 µM): 0.738
relative viability ([23]; first compound 0.04 µM): 0.565
relative viability ([23]; first compound 0.1265 µM): 0.415
relative viability ([23]; first compound 0.4 µM): 0.414
relative viability ([23]; first compound 4 µM): 0.251
relative viability ([24]; first compound 0.04 µM): 0.713
relative viability ([24]; first compound 0.1265 µM): 0.751
relative viability ([24]; first compound 0.4 µM): 0.859
relative viability ([24]; first compound 4 µM): 0.711
